Results on 2 molecules are retold here after paper PMC9290910, “Neuropilin‐1 is required for endothelial cell adhesion to soluble vascular endothelial growth factor receptor 1” (The Febs Journal, 2021).

Where no end group is shown, it is not given here.

Assay [1] relates to EC (HUVEC) adhesion to peptide 12. Description: Cell adhesion assay, EC adhesion to peptide 12. The class given is cell-based, human. The conditions noted are these: plates coated with 500 µg·mL^−1 peptide 12. The procedure: Human umbilical vein endothelial cells (HUVEC) were isolated from freshly delivered umbilical cords, as previously described, cultured in Endothelial Cell Growth Medium‐2 Kit from Clonetics (EGM‐2, CC4176, Lonza, Basel, Switzerland), and used up to passage 6. For functional assays, HUVEC were resuspended in Endothelial Basal Medium‐2 (EBM‐2, CC3156, Lonza). A pool of cells derived from four different individuals was used.
Solid support for adhesion assay was prepared by incubating immunological 96‐multiwell plates with 20 µg·mL^−1 VEGFR‐1/Fc chimera, or fibronectin solubilized in PBS. After 2 h, the coating solution was removed, and the well surface was blocked with 3% BSA in PBS for 18 h, before plating ECs in serum‐free medium at 3 × 10^4 cells per well. After incubation at 37 °C for 1 h, the wells were washed with PBS and attached cells were fixed with 3% formaldehyde and stained with 0.5% crystal violet. Attachment efficiency was determined by quantitative dye extraction and spectrophotometric measurement of the absorbance at 540 nm, using a Microplate reader 3550‐UV (Bio‐Rad). In competition experiments, peptides Flt2‐11, scrambled Flt2‐11, Flt2‐8 or Flt2‐5, at 20 µg·mL^−1, were added during the adhesion assay. Adhesion to peptide 12 was carried out by using maleic anhydride activated microplates (Reacti‐Bind, Pierce, Rockford, IL, USA) coated with 500 µg·mL^−1 of the peptide.

In assay [2] the test system is α5β1 integrin signalling in ECs. Kind of assay: Signalling activated by EC adhesion. Particulars: myristoylated alanine‐rich C‐kinase substrate up-regulation, Rac1 activation; data not shown. The class given is cell-based.
Assay [3] deals with EC (HUVEC) adhesion to peptide 12. Particulars: cited from earlier work. The source says: (§1) To dissect whether interaction of NRP‐1 with the transmembrane or the soluble isoform of VEGFR‐1 was required for EC adhesion to sVEGFR‐1, we performed EC adhesion assays by substituting sVEGFR‐1 with a different adhesion substrate, named peptide 12.
Assay [4] deals with angiogenesis. Particulars: cited from earlier work.
From the text: as §1

Assay [5] has as its system α5β1 integrin. The arrangement: method as in 2 sources, one per row (each row's own in cited_ref): ref 34, 36 = [34]; PMID 18184864; doi:10.1182/blood-2007-03-077537; 34 Soro S , Orecchia A , Morbidelli L , Lacal PM , Morea V , Ballmer‐Hofer K , Ruffini F , Ziche M , D'Atri S , Zambruno G et al . ( 2008 ) A proangiogenic peptide derived from vascular endothelial gr || [36]; PMID 18682321; doi:10.1016/j.ejca.2008.06.032; 36 Lacal PM , Morea V , Ruffini F , Orecchia A , Dorio AS , Failla CM , Soro S , Tentori L , Zambruno G , Graziani G et al . ( 2008 ) Inhibition of endothelial cell migration and angiogenesis by a vas ||| ref 34 = [34]; PMID 18184864; doi:10.1182/blood-2007-03-077537; 34 Soro S , Orecchia A , Morbidelli L , Lacal PM , Morea V , Ballmer‐Hofer K , Ruffini F , Ziche M , D'Atri S , Zambruno G et al . ( 2008 ) A proangiogenic peptide derived from vascular endothelial gr. The conditions noted are these: cited from earlier work.

In assay [6] the test system is NRP‐1. Kind of assay: SPR, VEGFR‐1 binding to immobilized NRP‐1. Particulars: NRP‐1 immobilized, VEGFR‐1 0.6-5 nM, 1:1 Langmuir model. The arrangement: species or system human. On the procedure: Fig. 2 Flt2‐11 peptide inhibits NRP‐1 binding to VEGFR‐1. SPR analysis of the interaction between VEGFR‐1 and NRP‐1 in peptide absence (A), or presence of Flt2‐11 peptide (B) or scrambled Flt2‐11 peptide (C). NRP‐1 is immobilized on the sensor chip. (A) VEGFR‐1 is injected at different concentrations (from bottom to top: 0.6 nM, cyan; 1 nM, red; 2 nM, green; 2.5 nM, blue; and 5 nM, black). […] (B) VEGFR‐1 is injected at 5 nM together with peptide Flt2‐11 at different concentrations (from top to bottom: 0, black; 5 nM, blue; 15 nM, green; 45 nM, red; 100 nM, cyan; and 800 nM, magenta). […] (C) VEGFR‐1 is injected at 5 nM together with ‘scrambled’ Flt2‐11 peptide at different concentrations (from top to bottom: 0, black; 0.5 μM, blue; 950 μM, geen; and […], red).
SPR experiments were carried out using a BIACORE X system (Biacore AB, Uppsala, Sweden). […] The reaction was carried out in 20 mM sodium acetate at pH 5.0, which is about 2 points below the theoretical NRP‐1 isoelectric point calculated using the program pI‐tool. […]
RU express the mass concentration‐dependent changes in the observed SPR signal, that is, the refractive index on the sensor chip surface. Changes in this signal are determined by the interaction between the immobilized protein (i.e., either NRP‐1 or VEGFR‐1) with the analyte protein (i.e., VEGFR‐1/Fc, α5β1 integrin or semaphorin 3A). […]

Assay [7] concerns α5β1 integrin signalling in ECs. The arrangement: method as in PMID 24174428. The conditions noted are these: phosphorylation of focal adhesion kinase or Shc; cited from earlier work.

In the case of “peptide 12: seven amino acid‐long peptide that maps on the second VEGFR‐1 Ig‐like domain (residues 219–225) (NYLTHRQ; also: biotin, position not given here)”, the “EC adhesion to peptide 12 in the absence of NRP‐1” value in assay [1] is given as “ECs adhere to peptide 12 in the absence of NRP‐1”. For the same molecule, the “signalling pathway activation by EC adhesion to peptide 12” value in assay [2] was “also activated”. In addition, the “support of EC adhesion by peptide 12” value in assay [3] is recorded as “support EC adhesion”. Also, the “pro‐angiogenic stimulus” value in assay [4] was “pro‐angiogenic stimulus”. Also, the “binding to α5β1 integrin” value in assay [5] was “able to directly bind α5β1 integrin”.

B1: VEGFR‐1: Recombinant human VEGFR‐1/Fc (321‐FL‐050), R&D Systems (protein)
chain: SKLKDPELSLKGTQHIMQAGQTLHLQCRGEAAHKWSLPEMVSKESERLSITKSACGRNGKQFCSTLTLNTAQANHTGFYSCKYLAVPTSKKKETESAIYIFISDTGRPFVEMYSEIPEIIHMTEGRELVIPCRVTSPNITVTLKKFPLDTLIPDGKRIIWDSRKGFIISNATYKEIGLLTCEATVNGHLYKTNYLTHRQTNTIIDVQISTPRPVKLLRGHTLVLNCTATTPLNTRVQMTWSYPDEKNKRASVRRRIDQSNSHANIFYSVLTIDKMQNKDKGLYTCRVRSGPSFKSVNTSVHIYDKAFITVKHRKQQVLETVAGKRSYRLSMKVKAFPSPEVVWLKDGLPATEKSARYLTRGYSLIIKDVTEEDAGNYTILLSIKQSNVFKNLTATLIVNVKPQIYEKAVSSFPDPALYPLGSRQILTCTAYGIPQPTIKWFWHPCNHNHSEARCDFCSNNEESFILDADSNMGNRIESITQRMAIIEGKNKMASTLVVADSRISGIYICIASNKVGTVGRNISFYITDVPNGFHVNLEKMPTEGEDLKLSCTVNKFLYRDVTWILLRTVNNRTMHYSISKQKMAITKEHSITLNLTIMNVSLQDSGTYACRARNVYTGEEILQKKEITIRDQEAPYLLRNLSDHTVAISSSTTLDCHANGVPEPQITWFKNNHKIQQEPGIILGPGSSTLFIERVTEEDEGVYHCKATNQKGSVESSAYLTVQGTSDKSNLE
modifications: left off: Fc, end not stated, kept
notes: Recombinant human VEGFR‐1/Fc (321‐FL‐050), R&D Systems
In assay [6], B1 registered a k off of 0.0003 s⁻¹ and a k on of 12000 M⁻¹ s⁻¹. In addition, the “activation of canonical α5β1 integrin signalling by EC adhesion to sVEGFR‐1” value in assay [7] is listed as “does not activate canonical α5β1 integrin signalling”.
